Earlier results as cited in patent publication US20190029235A1, “EFFICIENT, SCALABLE PATIENT-DERIVED XENOGRAFT SYSTEM BASED ON A CHICK CHORIOALLANTOIC MEMBRANE (CAM) IN VIVO MODEL” (Baylor College of Medicine, priority 2015, published 2019).

Assays:
[1] = system: BCM-6257 breast cancer PDX line; settings: PDX line BCM-6257, tumor source Pre-treat Bx, mouse-based breast cancer PDX
[2] = system: BCM-2147 breast cancer PDX line; settings: PDX line BCM-2147, tumor source Pre-treat Bx, mouse-based breast cancer PDX
[3] = system: BCM-4013 breast cancer PDX line; settings: PDX line BCM-4013, tumor source Pre-treat Bx, mouse-based breast cancer PDX

| Compound | Treatment Response [1] | Treatment Response [2] | Treatment Response [3] |
| --- | --- | --- | --- |
| N.N.O=C([O-])C1(C(=O)[O-])CCC1.[Pt+2] [Carboplatin, carboplatin] | Sensitive | Sensitive | Resistant |
| COc1cccc2c1C(=O)c1c(O)c3c(c(O)c1C2=O)C[C@@](O)(C(=O)CO)C[C@@H]3O[C@H]1C[C@H](N)[C@H](O)[C@H](C)O1 [Doxorubicin, doxorubicin] | Resistant | Resistant | Resistant |
| CC(=O)O[C@@]12CO[C@@H]1C[C@H](O)[C@@]1(C)C(=O)[C@H](O)C3=C(C)[C@@H](OC(=O)[C@H](O)[C@@H](NC(=O)OC(C)(C)C)c4ccccc4)C[C@@](O)([C@@H](OC(=O)c4ccccc4)[C@H]21)C3(C)C [Docetaxel, docetaxel] | Sensitive | Resistant | Resistant |
